Assay results taken from patent US8962860B2, “Inhibitors of glutaminyl cyclase” (Probiodrug AG, priority 2008, dated 2015).

How the values were obtained:
[1] = Log BB screen: brain compound level and log BB in mice; assay type: in vivo; settings: single i.v. injection; for concentration at 1 h: iv, 10 mg/ml, mouse, brain, read-out: Brain concentration 1 h after application
Method: Screening for brain compound level and log BB was done in mice. Compound was applied by a single i.v. injection. […] At least 3 animals were analyzed per compound. Animals were sacrificed 1 h after compound application and blood was collected by heart puncture. Serum was prepared from blood. Animals were perfused with PBS and brains were collected. Compound level in serum and brain were determined by HPLC-MS/MS analysis. Log BB were calculated as follows: [formula]

[2] = test system: pGlu-Aβ3-42 in transgenic (tg) mice, which overexpress human AβQ3-42; assay: Treatment of Aβ-transgenic mice, pGlu-Aβ ELISA of brain homogenates; assay type: in vivo
Method: 6 (1-(1H-benzo[d]imidazol-5-yl)-5-(4-propoxyphenyl)imidazolidine-2,4-dion). Example compound 6 was implemented into the chow and the transgenic animals were treated orally. The treatment is specified in the table below. The mice used in this study were produced as described in WO 2009/034158.
Following treatment, tg mice were sacrificed, the brains were removed from the skull, flushed with ice cold saline and placed shortly on filter paper. Brain tissues without cerebellum were homogenized (Dounce homogenizer) in 2.5 ml 2% SDS in distilled water (SDS wash fraction), sonificated and centrifuged at 75,500×g for 1 hour at 4° C. The supernatant was removed and the pellet resuspended in 0.5 ml 70% formic acid (formic acid fraction) and neutralized by addition of 9.5 ml 1 M Tris solution. The formic acid (FA) is considered as the homogenate containing the highly insoluble Aβ peptides, including pGlu-Aβ species (Kawarabayashi et al., (2001), J. Neurosci. 21, 372-381). Aβx-40, Aβx-42 and Aβ3(pE)-42 specific sandwich ELISAs (all from IBL, Hamburg, Germany) were performed according to the manufacturer's manual. Samples were diluted to fit within the range of the standard curve using EIA buffer, which is supplied with the ELISA kits.

Row | Compound | concentration at 1 h [1] | logBB mouse 1 h after i.v. injection [1] | pGlu-Aβ3-42 concentration in formic acid extracts ([2]; tg mice treated orally via chow (4.8 g/kg) for two months, vs placebo) | pGlu-Aβ3-42 concentration in formic acid extracts, brainstem ([2]; tg mice treated orally via chow for two months, brainstem)
1 | CCCOc1ccc(C2C(=O)NC(=O)N2c2ccc3[nH]cnc3c2)cc1 (racemic) [Example 6, 1-(1H-benzo[d]imidazol-5-yl)-5-(4-propoxyphenyl)imidazolidine-2,4-dione] | 126 ng/g | −1.6 | significant reduction | below the limit of detection
2 | O=C1NC(=O)N(c2ccc3[nH]cnc3c2)C1c1ccc2nsnc2c1 (stereo not shown) [Example 1, 5-(benzo[c][1,2,5]thiadiazol-6-yl)-1-(1H-benzo[d]imidazol-5-yl)imidazolidine-2,4-dione] | 118 ng/g | −0.67 | – | –
3 | Cc1ccc(O)c(C2C(=O)NC(=O)N2c2ccc3[nH]cnc3c2)c1 (stereo not shown) [Example 3, 1-(1H-benzo[d]imidazol-5-yl)-5-(2-hydroxy-5-methylphenyl)imidazolidine-2,4-dione] | 17.1 ng/g | −1.42 | – | –
4 | O=C1NC(=O)N(c2ccc3[nH]cnc3c2)C1c1ccc(Cl)c(C(F)(F)F)c1 (stereo not shown) [Example 7, 1-(1H-benzo[d]imidazol-5-yl)-5-(4-chloro-3-(trifluoromethyl)phenyl)imidazolidine-2,4-dione] | 38.2 ng/g | −2.5 | – | –
5 | O=C1NC(=O)N(c2ccc3[nH]cnc3c2)C1c1ccc(Cl)cc1 (stereo not shown) [Example 13, 1-(1H-benzo[d]imidazol-5-yl)-5-(4-chlorophenyl)imidazolidine-2,4-dione] | 31.4 ng/g | −1.4 | – | –
6 | O=C1NC(=O)N(c2ccc3[nH]cnc3c2)C1c1ccccc1Cl (stereo not shown) [Example 14, 1-(1H-benzo[d]imidazol-5-yl)-5-(2-chlorophenyl)imidazolidine-2,4-dione] | 20.2 ng/g | −1.6 | – | –
7 | O=C1NC(=O)C2(Cc3ccccc3C2)N1c1ccc2[nH]cnc2c1 [Example 32, 3-(1H-benzimidazol-5-yl)-1,3′-dihydro-2H,5H-spiro[imidazolidine-4,2′-indene]-2,5-dione] | 11.7 ng/g | −1.2 | – | –
